Among the data in publication PMC6222853 (Molecules : A Journal of Synthetic Chemistry and Natural …, 2018) are IC50 and inhibition values, retold here.

For assay [1], the system named is LPS-stimulated RAW 264.7 cells. The assay is described as follows: Nitrite inhibition assay in LPS-stimulated cells. The assay is classed as cell-based. Conditions: Mus musculus; for IC50: RAW264.7, 24 h, read-out: Nitrite Inhibition (IC50 Value). On the procedure:
As an indicator of NO synthesis, nitrite amount was measured in the supernatant of LPS-stimulated RAW 264.7 cells. Cells were plated on a 24-well plate with a density of 2 × 10^5 cells/well. After seeding, cells were treated with LPS (500 ng/mL final concentration) and varying concentrations of the test compounds for 24 h. Ketorolac (200 μM) was used as a standard drug. Then, 100 μL of culture supernatant from each well was mixed with an equal volume of Griess reagent, and incubated at room temperature for 10 min. The formation of an azo compound was measured spectrophotometrically at 550 nm wavelength. Finally, nitrite concentration was determined from a standard curve of sodium nitrite, and nitrite inhibition percentages of test compounds and the reference drug were calculated based on the amount of nitrite produced by the control cells (treated only with LPS).

The target of a further assay is T1, electric eel AChE (Electrophorus electricus, UniProt O42275).
T1 construct: purchased Sigma-Aldrich (Saint Louis, MO, USA)
Kind of assay: biochemical. Conditions: in vitro, electric eel enzyme; read-out: AChE inhibition IC50. How it is done:
The AChE inhibitory properties of the compounds were determined using a 96-well microplate colorimetric method as described by Ellman et al.. Donepezil was used as a positive control.

The next assay concerns the target T2, COX-2 (Mus musculus, UniProt Q05769).
T2 construct: treated with 500 ng/mL LPS for the next 24 h to induce the production of COX-2; endogenous in cells; host or cells: RAW 264.7 cells, LPS-induced
T2 sequence (Q05769 18-604): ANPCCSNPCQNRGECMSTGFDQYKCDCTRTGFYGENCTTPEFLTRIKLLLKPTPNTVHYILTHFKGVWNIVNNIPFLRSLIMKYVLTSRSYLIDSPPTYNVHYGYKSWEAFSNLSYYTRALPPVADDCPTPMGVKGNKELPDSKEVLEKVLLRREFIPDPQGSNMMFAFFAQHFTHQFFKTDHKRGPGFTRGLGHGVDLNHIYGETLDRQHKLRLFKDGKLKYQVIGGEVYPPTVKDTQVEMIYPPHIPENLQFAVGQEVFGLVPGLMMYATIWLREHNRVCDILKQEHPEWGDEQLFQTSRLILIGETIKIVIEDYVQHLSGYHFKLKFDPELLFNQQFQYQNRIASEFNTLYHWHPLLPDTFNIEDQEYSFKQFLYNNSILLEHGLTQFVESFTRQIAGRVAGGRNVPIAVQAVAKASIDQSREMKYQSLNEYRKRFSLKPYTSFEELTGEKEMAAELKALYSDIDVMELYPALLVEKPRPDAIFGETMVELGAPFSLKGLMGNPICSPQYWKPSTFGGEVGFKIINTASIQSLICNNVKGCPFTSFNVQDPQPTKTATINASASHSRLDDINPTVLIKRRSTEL
Kind of assay: Cell-based assay for COX-2 inhibition (PGE2 ELISA). The settings on record: LPS-induced RAW 264.7 cells, conversion of arachidonic acid to PGE2. On the procedure:
This assay was carried out according to the method described by Stanikunaite et al. with some modifications. In brief, RAW 264.7 cells (2 × 10^5 cells/well) were cultured in a 24-well plate in DMEM supplemented with 10% FBS and incubated at 37 °C for 24 h for seeding. After seeding, cells were washed with PBS (400 µL) and treated with 500 ng/mL LPS for the next 24 h to induce the production of COX-2. Then, the induced cells were washed thoroughly with PBS to remove LPS completely and treated with different concentrations of test compounds for 4 h. Arachidonic acid (300 µM) was added and the cells were further incubated for 30 min. Next, the PGE2 levels were determined in the culture supernatant using a PGE2 ELISA kit (Cayman Chemical Co., Ann Arbor, MI, USA) according to the manufacturer’s instructions. COX-2 enzyme activity was determined by the conversion of exogenous arachidonic acid to PGE2, and was expressed as the percentage of negative control (without test compounds). Finally, IC50 values were calculated for all the tested compounds. Indomethacin was used as a positive control.

Another assay deals with T3, yeast α-glucosidase (Saccharomyces cerevisiae, UniProt P53341).
T3 construct: purchased Sigma-Aldrich (Saint Louis, MO, USA)
The assay is described as follows: α-Glucosidase inhibition assay. The assay is classed as biochemical. On the procedure: The α-glucosidase assay was performed with slight modifications of a previous method. In short, 15 µL of the test sample at various concentrations was added to 140 µL of enzyme solution (0.0073 U/mL of α-glucosidase in 0.05 M sodium phosphate buffer containing 100 mM NaCl) in a 96-well plate. Reaction mixtures were incubated at 37 °C for 15 min. Then, 25 µL of 0.7 mM p-nitrophenyl-α-D-glucopyranoside (PNPG) solution in 0.05 M sodium phosphate buffer (pH 6.8) was added to each well.

In another assay the target is T4, egg albumin (Gallus gallus, UniProt P01012).
T4 sequence (P01012 1-386): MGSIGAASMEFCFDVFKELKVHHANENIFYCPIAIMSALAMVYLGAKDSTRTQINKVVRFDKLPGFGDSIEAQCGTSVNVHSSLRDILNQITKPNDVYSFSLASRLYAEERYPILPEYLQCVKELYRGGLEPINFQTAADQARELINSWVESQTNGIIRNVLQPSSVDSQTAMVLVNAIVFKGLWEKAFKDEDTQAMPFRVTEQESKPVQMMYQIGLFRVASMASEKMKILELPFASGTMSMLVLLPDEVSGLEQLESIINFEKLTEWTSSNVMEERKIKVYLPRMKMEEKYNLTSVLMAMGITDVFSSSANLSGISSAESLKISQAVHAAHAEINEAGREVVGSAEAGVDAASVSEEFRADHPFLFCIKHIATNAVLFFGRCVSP
The assay is described as follows: Albumin denaturation inhibition assay. Details: species or system chicken. The settings on record: for IC50: egg albumin, heated at 70 °C, in vitro. How it is done:
Albumin denaturation inhibition effects of the compounds were confirmed through a previously described method. Egg albumin was used in this experiment, and the reaction mixture contained 0.1 mL of egg albumin, 0.7 mL of phosphate-buffered saline (PBS), and varying concentrations of different compounds (0.5 mL). Mili-Q water (0.5 mL) instead of the compounds was used in the negative control. The reaction mixtures were incubated at 37 °C for 15 min and heated at 70 °C for 5 min. The absorbance was measured at 660 nm after cooling at room temperature. Ketorolac was used as a standard drug. Percentage of albumin denaturation inhibition was calculated according to the following formula:Percentage of inhibition = (1 − (A/B)) × 100, where A is the absorbance of the test sample, and B is the absorbance of the negative control.

The subject of a further assay is RAW 264.7 cells. The assay is described as follows: cells. The assay is classed as cell-based. Conditions: Mus musculus, RAW264.7, 24 h, read-out: Inhibition of cell proliferation, deviation from the control group. How it is done: RAW 264.7 cell viability was evaluated through the MTT assay. Cells were seeded in a 24-well plate at a density of 2 × 10^5 cells/well and incubated with the OP compounds for 24 h. Ketroloac (200 μM) was also assessed to determine its cytotoxicity on RAW 264.7 cells. After incubation, the supernatant was removed, and the cells were washed with PBS. Aliquots of 100 μL of MTT solution (0.5 mg/mL in PBS) were added to each well, and the plate was incubated at 37 °C for 3 h. Afterwards, dimethyl sulfoxide (400 μL) was added to each well, and the plate was shaken for 10 min at room temperature to dissolve the formazan crystals. The absorbance was measured at 570 nm wavelength using a microplate reader, and the cell viability was calculated from the absorbance of the treated versus untreated control cells.

T1 sequence (O42275 24-633): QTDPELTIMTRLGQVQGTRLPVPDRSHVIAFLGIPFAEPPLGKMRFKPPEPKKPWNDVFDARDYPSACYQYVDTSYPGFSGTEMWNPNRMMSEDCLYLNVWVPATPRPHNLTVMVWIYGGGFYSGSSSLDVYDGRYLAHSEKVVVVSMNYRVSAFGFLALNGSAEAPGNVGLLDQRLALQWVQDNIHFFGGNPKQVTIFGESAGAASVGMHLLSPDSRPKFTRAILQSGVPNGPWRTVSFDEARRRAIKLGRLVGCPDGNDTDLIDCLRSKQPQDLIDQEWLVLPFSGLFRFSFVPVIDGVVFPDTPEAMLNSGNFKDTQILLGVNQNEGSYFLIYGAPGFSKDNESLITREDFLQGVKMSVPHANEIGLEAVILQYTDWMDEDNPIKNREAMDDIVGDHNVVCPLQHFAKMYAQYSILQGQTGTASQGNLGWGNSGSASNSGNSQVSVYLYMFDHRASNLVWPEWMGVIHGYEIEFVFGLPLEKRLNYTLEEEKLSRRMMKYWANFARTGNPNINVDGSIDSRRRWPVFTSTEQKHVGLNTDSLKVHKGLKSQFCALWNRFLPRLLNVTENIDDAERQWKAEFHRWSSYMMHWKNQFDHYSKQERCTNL
T3 sequence (P53341 whole entry): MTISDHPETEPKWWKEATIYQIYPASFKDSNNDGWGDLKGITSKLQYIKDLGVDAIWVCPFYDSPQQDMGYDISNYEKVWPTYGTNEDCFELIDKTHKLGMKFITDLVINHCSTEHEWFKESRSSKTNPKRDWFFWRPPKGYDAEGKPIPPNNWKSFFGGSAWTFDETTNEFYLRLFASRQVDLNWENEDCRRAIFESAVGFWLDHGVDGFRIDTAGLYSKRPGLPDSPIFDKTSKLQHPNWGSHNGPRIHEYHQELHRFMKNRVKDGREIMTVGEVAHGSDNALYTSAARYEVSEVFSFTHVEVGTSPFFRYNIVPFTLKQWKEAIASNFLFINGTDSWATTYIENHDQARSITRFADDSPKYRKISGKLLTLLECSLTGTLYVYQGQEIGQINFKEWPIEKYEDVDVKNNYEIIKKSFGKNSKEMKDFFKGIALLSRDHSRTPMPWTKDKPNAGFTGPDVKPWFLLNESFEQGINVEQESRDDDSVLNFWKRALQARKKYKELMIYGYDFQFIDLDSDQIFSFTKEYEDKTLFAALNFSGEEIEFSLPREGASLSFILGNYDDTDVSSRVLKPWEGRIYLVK

Regarding `CC(C)=CCC/C(C)=C/Cc1cc([C@@H]2CC(=O)c3c(O)cc(O)cc3O2)ccc1O` [GN, 3′-geranyl-naringenin], the IC50 in assay [1] came to 7 µM; on electric eel AChE, 12.3 µM; at COX-2 it was 24 µM; at yeast α-glucosidase it was 5.4 µM; against egg albumin, 1.02 µM.

As for `CC(C)=CCC/C(C)=C/Cc1cc(C2CC(=O)c3c(O)cc(O)cc3O2)cc(O)c1O` (centres unmarked) [INB, isonymphaeol-B], the IC50 in assay [1] is 6.2 µM; at electric eel AChE it was 7.23 µM; against COX-2, 23.8 µM; against yeast α-glucosidase it was 5.12 µM; against egg albumin, 0.42 µM. Also, the inhibition at 12 µM with RAW 264.7 cells fell in the range of 3 to 5%.

For `CC(C)=CCC/C(C)=C/Cc1c(O)cc2c(c1O)C(=O)C[C@@H](c1ccc(O)c(O)c1)O2` [NA, nymphaeol-A], the IC50 was 3.2 µM in assay [1]; 7.77 µM at electric eel AChE; 11.7 µM on COX-2; 3.77 µM on yeast α-glucosidase; 0.26 µM on egg albumin.

Take `CC(C)=CCC/C(C)=C/Cc1c([C@@H]2CC(=O)c3c(O)cc(O)cc3O2)ccc(O)c1O` [NB, nymphaeol-B]: the IC50 in assay [1] came to 5.4 µM; at electric eel AChE, 15.1 µM; against COX-2, 17.9 µM; at yeast α-glucosidase, 5.66 µM; on egg albumin it was 0.54 µM. Further, the inhibition at 12 µM in the assay with RAW 264.7 cells is 3 to 5%.

As to `CC(C)=CCC/C(C)=C/Cc1c([C@@H]2CC(=O)c3c(cc(O)c(CC=C(C)C)c3O)O2)ccc(O)c1O` [NC, nymphaeol-C], the IC50 was 2.4 µM in assay [1]; 15.7 µM at electric eel AChE; 15.4 µM at COX-2; 4.09 µM against yeast α-glucosidase; 0.37 µM against egg albumin.

For `O=C(c1ccccc1)c1ccc2n1CCC2C(=O)O` (centres unmarked) [ketorolac, reference compound], the inhibition at 200 µM in assay [1] (RAW264.7, 200 μM, compared to cells treated only with LPS, read-out: Inhibition of nitrite formation in the supernatant) stood at 26%; on egg albumin (at 200 µM), 52%.
